Measurements from patent US9447087B2, “Galactokinase inhibitors for the treatment and prevention of associated diseases and disorders” (UNIVERSITY OF UTAH RESEARCH FOUNDATION, priority 2011, dated 2016).
Converted amounts (≈) assume the structure as drawn.

How the values were obtained:
CDP-ME kinase = CDP-ME kinase (Escherichia coli (strain K12), UniProt P62615); assay: selectivity against CDP-ME kinase (bioluminescent Kinase Glo ATP depletion, PubChem ID 2506); format: biochemical; conditions: up to 57 μM
CDP-ME kinase, sequence (P62615 whole entry, looked up): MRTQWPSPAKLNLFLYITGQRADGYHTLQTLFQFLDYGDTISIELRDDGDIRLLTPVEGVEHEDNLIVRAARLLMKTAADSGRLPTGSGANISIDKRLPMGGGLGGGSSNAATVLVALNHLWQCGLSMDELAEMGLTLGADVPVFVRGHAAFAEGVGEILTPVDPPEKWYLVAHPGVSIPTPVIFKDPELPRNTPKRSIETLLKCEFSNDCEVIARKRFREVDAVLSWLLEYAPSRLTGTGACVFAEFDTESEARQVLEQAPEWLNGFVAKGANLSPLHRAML
Experimental: The selectivity for these analogs against CDP-ME kinase, another member of the GHMP kinase family, was performed using a bioluminescent Kinase Glo™ assay that detects ATP depletion after kinase reaction (PubChem ID 2506). […] All analogs were also tested for cytotoxicity using Promega CellTiter Glo on HEK293 cells that were treated with compounds and analyzed after 48 hours. […] In addition, the ability of these compounds to undergo redox recycling, which may lead to false positive results, was also evaluated using an endpoint colorimetric assay; this assay detects the presence of H2O2 in the kinase reaction buffer (PubChem ID 2502).

Solubility in PBS = format: physicochemical; conditions: aqueous buffer, pH 7.4, 23° C.
GALK = GALK (Homo sapiens (Human), UniProt P51570); assay: primary qHTS assay for inhibitors of GALK (KinaseGlo ATP depletion); format: biochemical; conditions: 5 nM GALK, 35 μM ATP, 1 hr incubation
GALK, sequence (P51570 whole entry): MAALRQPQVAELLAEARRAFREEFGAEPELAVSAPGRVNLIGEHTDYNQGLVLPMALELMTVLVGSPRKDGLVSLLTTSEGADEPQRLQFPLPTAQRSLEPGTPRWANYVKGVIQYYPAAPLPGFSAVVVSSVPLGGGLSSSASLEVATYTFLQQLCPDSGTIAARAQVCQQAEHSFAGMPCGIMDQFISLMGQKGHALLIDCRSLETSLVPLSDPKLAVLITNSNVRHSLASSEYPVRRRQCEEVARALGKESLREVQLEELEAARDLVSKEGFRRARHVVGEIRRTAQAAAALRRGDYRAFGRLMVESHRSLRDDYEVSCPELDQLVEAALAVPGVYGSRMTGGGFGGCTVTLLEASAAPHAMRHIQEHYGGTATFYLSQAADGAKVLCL
Experimental: Assay details and protocol: The primary assay monitored ATP depletion using Promega's KinaseGlo™ technology, where ATP levels are measured through luminescence generated from firefly luciferase, a bioluminescent ATP-dependent enzymes. […] This was used as the positive control for the assay. […]

HEK293 cells = assay: cytotoxicity, Promega CellTiter Glo on HEK293 cells (PubChem ID 2547); format: cell-based; conditions: analyzed after 48 hours
Experimental: The selectivity for these analogs against CDP-ME kinase, another member of the GHMP kinase family, was performed using a bioluminescent Kinase Glo™ assay that detects ATP depletion after kinase reaction (PubChem ID 2506). […] All analogs were also tested for cytotoxicity using Promega CellTiter Glo on HEK293 cells that were treated with compounds and analyzed after 48 hours.

Row | Compound | IC50 (GALK) [µM] | activity against CDP-ME kinase (CDP-ME kinase) | solubility (Solubility in PBS) [µg/mL] | cytotoxic effect on HEK293 cells (HEK293 cells)
1 | O=C1CCCC2=C1C1(CCCC1)N=C(Nc1nc3ccccc3o1)N2 [NCGC00187642] | – | no activity | 2.3 (≈ 6.84 µM) | –
2 | O=C1CC(c2ccccc2)CC2=C1C1(CCCCC1)N=C(Nc1nc3ccccc3o1)N2 (centres unmarked) [Compound 6] | 42.1 | – | – | no cytotoxic effect
3 | Cn1c(NC2=NC3(CCCC3)C3=C(CCCC3=O)N2)nc2ccccc21 [Compound 35] | 74.9 | – | – | no cytotoxic effect
4 | O=C1CCC2=C1C1(CCCC1)N=C(Nc1nc3ccccc3o1)N2 [Compound 10] | 13.3 | – | – | no cytotoxic effect

The next lines start with results.

Row | IC50 (GALK) [µM] | Compound | activity against CDP-ME kinase (CDP-ME kinase) | solubility (Solubility in PBS) [µg/mL] | cytotoxic effect on HEK293 cells (HEK293 cells)
5 | 37.5 | O=C1CCCC2=C1C1(CCCC1)N=C(Nc1nc3cc4ccccc4cc3o1)N2 [Compound 33] | – | – | no cytotoxic effect
6 | 6.68 | O=C1CCCC2=C1C1(CCCC1)N=C(Nc1nc3cc(Cl)ccc3o1)N2 [Compound 20] | – | – | no cytotoxic effect
7 | 16.8 | O=C1CCCC2=C1C1(CCC1)N=C(Nc1nc3ccccc3o1)N2 [Compound 3] | – | – | no cytotoxic effect
